Some test systems named below: SN12C renal; NCI/ADR-RES ovarian; M14 melanoma; MDA-MB-435; SK-MEL-5 melanoma; EKVX NSCLC; SR leukemia; SK-MEL-2 melanoma; DU-145 prostate; OVCAR-5 ovarian; ACHN renal; KM12 colon; HCT-116 colon.
What all share (experiment): NCI anticancer screen, dose series, 48 h

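A five-concentration, 48-hour dose response in 96-well plates underlies each endpoint, interpolated linearly between surrounding concentrations. At the GI50, growth is halved. TGI denotes the concentration required for complete inhibition of growth.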

The record followed here is PubChem BioAssay (NCI).

For `CC(=O)O[C@H]1CC[C@H]2[C@@H]3CCc4cc(O)c(I)cc4[C@H]3CC[C@]12C`, the GI50 in the assay on SN12C renal is 18 µM; in the assay on MDA-MB-435 it was 13.1 µM; in the assay with HCT-116 colon, 16 µM. Also, the TGI was 37.2 µM with SN12C renal; 43.2 µM with NCI/ADR-RES ovarian; 27.3 µM in the assay on M14 melanoma; 26.6 µM with MDA-MB-435; 17.2 µM in the assay on SK-MEL-5 melanoma; 26.8 µM in the assay on EKVX NSCLC. Moreover, the TGI with SR leukemia was greater than 100 µM; in the assay on SK-MEL-2 melanoma it was 37.3 µM; in the assay on DU-145 prostate, 28.7 µM; in the assay on OVCAR-5 ovarian it was 32.2 µM; in the assay on ACHN renal, 28.1 µM; in the assay on KM12 colon it was 28.3 µM. Moreover, the TGI in the assay with HCT-116 colon amounted to 29.9 µM.

Consider `CCOC(=O)Cc1ccc(Nc2nc3cc(C(F)(F)F)ccc3nc2C(=O)OCC)cc1`, for which the TGI in the assay with SN12C renal, in the assay with NCI/ADR-RES ovarian, with M14 melanoma, with MDA-MB-435, in the assay on SK-MEL-5 melanoma and with EKVX NSCLC was greater than 100 µM in each case. In addition, the TGI in the assay with SR leukemia, in the assay with SK-MEL-2 melanoma, in the assay with DU-145 prostate, in the assay on OVCAR-5 ovarian, in the assay on ACHN renal and with KM12 colon was greater than 100 µM in each case. Also, the TGI with HCT-116 colon was greater than 100 µM.

Take `O=C1CC2[C@@H](N3CCCC3)CCC(N1Cc1ccccc1)C2(O)O` (some centres undefined): the TGI in the assay on SN12C renal, in the assay on NCI/ADR-RES ovarian, with M14 melanoma, in the assay on MDA-MB-435, with SK-MEL-5 melanoma and in the assay on EKVX NSCLC was greater than 100 µM throughout. The TGI in the assay with SR leukemia, with DU-145 prostate, in the assay on OVCAR-5 ovarian, with ACHN renal, in the assay with KM12 colon and with HCT-116 colon was greater than 100 µM each time.

Turning to `O=C(NNC(=S)Nc1ccccc1)C12CC3CC(CC(C3)C1)C2`, the TGI was greater than 100 µM in the assay on SN12C renal; 59.7 µM in the assay on NCI/ADR-RES ovarian; 67 µM in the assay with M14 melanoma; greater than 100 µM in the assay on MDA-MB-435; 42.6 µM in the assay on SK-MEL-5 melanoma; greater than 100 µM in the assay on EKVX NSCLC. In addition, the TGI with SR leukemia was 22.5 µM; in the assay on SK-MEL-2 melanoma, greater than 86.9 µM; with DU-145 prostate it was greater than 100 µM; in the assay on OVCAR-5 ovarian it was greater than 100 µM; in the assay with ACHN renal, greater than 100 µM; in the assay with KM12 colon, greater than 100 µM. The molecule further showed a TGI in the assay with HCT-116 colon greater than 94.3 µM.

With `COC(=O)/C=C\c1ccc2c(c1)CC1(C2)Cc2ccc(/C=C/C(=O)OC)cc2C1` (centres undefined), the TGI with SN12C renal, in the assay on NCI/ADR-RES ovarian, in the assay on M14 melanoma, with MDA-MB-435, with SK-MEL-5 melanoma and in the assay on EKVX NSCLC was greater than 31.6 µM in each case. Besides, the TGI in the assay on SR leukemia was greater than 31.6 µM; in the assay on DU-145 prostate, greater than 100 µM; in the assay on OVCAR-5 ovarian, greater than 31.6 µM; in the assay on ACHN renal, greater than 31.6 µM; in the assay with KM12 colon, greater than 31.6 µM; in the assay on HCT-116 colon it was greater than 31.6 µM.

Consider `CC(=O)OCC1OC(n2c(C)c(N=Nc3ccc(C)cc3)c(C)c(C#N)c2=S)C(OC(C)=O)C(OC(C)=O)C1OC(C)=O` (centres undefined), for which the TGI in the assay on SN12C renal, in the assay with NCI/ADR-RES ovarian, in the assay with M14 melanoma, in the assay on MDA-MB-435, in the assay with SK-MEL-5 melanoma and in the assay with SR leukemia was greater than 100 µM in each case. In addition, the TGI in the assay on DU-145 prostate, in the assay on OVCAR-5 ovarian, in the assay on ACHN renal, in the assay on KM12 colon and in the assay with HCT-116 colon was greater than 100 µM each time.

Regarding `Cc1ccc2c(c1)C(=O)/C(=C1/CCc3ccc(C)cc31)C2`, the TGI with SN12C renal, with NCI/ADR-RES ovarian, with M14 melanoma, with MDA-MB-435, in the assay on SK-MEL-5 melanoma and with EKVX NSCLC was greater than 100 µM each time. The TGI in the assay with SR leukemia, with SK-MEL-2 melanoma, in the assay with DU-145 prostate, in the assay with OVCAR-5 ovarian, in the assay with ACHN renal and in the assay with KM12 colon was greater than 100 µM each time. The same molecule gave a TGI with HCT-116 colon greater than 100 µM.

Consider `Cc1ccc(SCC(OCn2cnc3c(N)ncnc32)[C@H](C)F)cc1` (some centres undefined), for which the TGI in the assay on SN12C renal, in the assay on NCI/ADR-RES ovarian, with M14 melanoma, in the assay with MDA-MB-435, in the assay with SK-MEL-5 melanoma and in the assay on SR leukemia was greater than 100 µM throughout. Besides, the TGI in the assay with SK-MEL-2 melanoma, with DU-145 prostate, in the assay on OVCAR-5 ovarian, in the assay with ACHN renal, in the assay on KM12 colon and with HCT-116 colon was greater than 100 µM in each case.

Take `O=C1O/C(=C\c2ccc(O)c(Br)c2)C(c2ccc(O)cc2)=C1Cl`: the TGI was 82.4 µM in the assay with NCI/ADR-RES ovarian; greater than 100 µM with M14 melanoma; greater than 100 µM in the assay on MDA-MB-435; 53.5 µM in the assay on SK-MEL-5 melanoma; greater than 100 µM in the assay with EKVX NSCLC; greater than 100 µM in the assay with SR leukemia. For the same molecule, the TGI with SK-MEL-2 melanoma, in the assay with DU-145 prostate, with OVCAR-5 ovarian, in the assay on ACHN renal, with KM12 colon and with HCT-116 colon was greater than 100 µM each time.

As for `O=C1c2ccccc2C(=O)c2c(OCC3CO3)ccc(OCC3CO3)c21` (centres undefined), the TGI in the assay with SN12C renal was 4.74 µM; in the assay on NCI/ADR-RES ovarian, 8.73 µM; in the assay on M14 melanoma, 4.78 µM; in the assay with MDA-MB-435 it was 7.61 µM; with SK-MEL-5 melanoma it was 15.5 µM; with EKVX NSCLC it was 35.5 µM. In addition, the TGI was found to be 1.55 µM in the assay with SR leukemia; 27.8 µM in the assay on SK-MEL-2 melanoma; 13.3 µM in the assay with DU-145 prostate; 30.9 µM with OVCAR-5 ovarian; 6.63 µM in the assay on ACHN renal; 11.4 µM in the assay on KM12 colon. The molecule further showed a TGI with HCT-116 colon of 11.5 µM.

`COc1ccc(-c2oc3c(CC(=O)O)cccc3c(=O)c2OC)cc1`: the TGI with SN12C renal, with NCI/ADR-RES ovarian, with M14 melanoma, in the assay with MDA-MB-435, in the assay with SK-MEL-5 melanoma and in the assay on EKVX NSCLC was greater than 100 µM throughout. The TGI in the assay on SR leukemia, with SK-MEL-2 melanoma, in the assay with DU-145 prostate, in the assay on OVCAR-5 ovarian, in the assay with ACHN renal and in the assay on HCT-116 colon was greater than 100 µM each time.
